Reference: patent US20030186943A1, “Substituted gamma-phenyl-delta-lactams and uses related thereto” (Inflazyme Pharmaceuticals Ltd., priority 1998, published 2003)
Where “and” joins values, the source holds several entries; their conditions need not be identical. Identical values can stand only once. Like-named read-outs stand apart in the source and are kept apart here.

Tests used:
[1] = test system: TNBS-induced colitis in the rat; assay: TNBS-induced colitis model of inflammatory bowel disease in the rat;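 also: rat colitis induced by intracolonic TNBS in 50% ethanol, distal colon assessed at sacrifice on day 7, with saline-instilled vehicle-treated rats as controls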
Procedure: Colitis was induced by intracolonic instillation of the hapten TNBS (60 mg/mL) in 0.5 mL of 50% ethanol. […] An additional group of rats received saline intracolonically in place of TNBS/ethanol and was treated with vehicle at the same times as outlined above. Body weights were recorded at the beginning of the study and at days 2 and 7.
The rats were sacrificed on the 7th day after the induction of colitis and the extent of damage and inflammation was assessed. After the rats were sacrificed, the distal colon was removed and pinned out on a wax platform. The presence or absence of diarrhea was noted, as well as the presence and severity of adhesions between the colon and other organs, and the severity and extent of colonic damage. […] After scoring, a sample of colonic tissue was excised for measurement of myeloperoxidase activity as an index of granulocyte infiltration (see Wallace et al., Gastroenterology 117: in press, 1999; and Morris et al., Gastroenterology 96:795-803, 1989). This tissue sample was 1 cm long (along the axis of the colon) and 5 mm wide and was taken from a region of macroscopically visible damage (or the corresponding region in any rats in which there was no damage). The remainder of the tissue was fixed in neutral buffered formalin and processed by routine methods for subsequent evaluation by light microscopy. In a blinded manner, the sample of colonic tissue from each rat was examined for evidence of mucosal ulceration and inflammation. The percentage of the luminal surface of the section in which ulceration was present was calculated.

[2] = test system: primary human neutrophils; assay: Generation of reactive oxygen species by fMLP-activated neutrophils (luminol-enhanced chemiluminescence); assay type: cell-based; details: Neutrophil
Source text: Neutrophil activation can be measured by quantitation of ROS generated in vitro. Measurement of ROS allows specific quantitation of a pro-inflammatory species and is also a general measure of neutrophil activation. The most sensitive method for measuring the production of ROS by neutrophils is luminol-enhanced chemiluminescence. […] The assay system used to evaluate the ability of compounds to inhibit ROS generation in neutrophils is indicative of anti-inflammatory activity that may be efficacious in disease states including but not limited to rheumatoid arthritis and inflammatory bowel disease.
Freshly isolated primary human neutrophils (5×10^6 cells/mL) were incubated with the required concentrations of compound or vehicle for 30 minutes at 37° C. in HBSS buffer (pH 7.4) containing Ca^2+. 100 nM wortmannin was used as a positive control. Aliquots of each sample were transferred to a microtitre plate to which luminol (1 μM); obtained from Sigma; Catalogue No. A8511 is added. Activation of the neutrophils was immediately initiated by addition of (1 μM) fMLP; obtained from Sigma, Catalogue No. F3506. Light output from each well was recorded for 30 minutes in a microplate luminometer. Total light output (integral of the time-course) was determined for each well. Inhibitory activities of test drugs against neutrophil ROS generation is expressed as percentage activity relative to a no drug control (100% activation or generation of ROS) containing 0.25% DMSO. Concentration of test compound required to inhibit the generation of ROS to 50% of control values (IC50's) were determined from concentration-response curves by non-linear regression analysis.

[3] = test system: High Affinity Rolipram Binding Site of PDE4 in Mouse Brain; assay: Displacement of [3H]-rolipram from its high affinity binding site (HARBS); details: ratio of IC50 for PDE4 catalytic activity to concentration displacing 50% of rolipram from HARBS
Procedure: Suspension was centrifuged twice at 30,000×G at 4° C. and the supernatant discarded. The pellet was resuspended in buffer, and adjusted to a protein concentration of 0.5 mg/mL. Drugs to be tested were dissolved in DMSO and pipetted in triplicate into a 96 well microplate at concentrations ranging from 1 to 30,000 nM. […] The plate was incubated at 4° C. for 1 hour. Contents of the plate were aspirated through a Whatman GF/C filterplate, and rinsed with 4×200 μL ice-cold buffer. […] Triplicate determinations were performed at each concentration.

[4] = test system: cAMP response element luciferase activity in human U937 monocytic cells; assay: Potentiation of forskolin-induced CRE-luciferase activity in U937 cells; assay type: cell-based; details: U-937, U937 cells co-incubated with 10 μM forskolin, 4 hours, X marks this range
Procedure: Compounds of the present invention were thereby shown to provide potentiated luciferase expression in U937 cells treated with the adenylyl cyclase activator forskolin.
Human pro-monocytic U937 cells were maintained in RPMI medium containing 10% FCS and 2 mM […]. U937 cells were transiently transfected as described in Biotechniques Vol. 17(6):1058, 1994. Briefly, cells were grown in medium containing serum to a density of 5×10^6 cells/mL and then resuspended in media containing serum at a density of approximately 1×10^7 cells/mL. 400 μL of cells were transferred into the electroporation cuvette containing 10 μg of the reporter vector (PCRE-luc) in a volume of 40 μL H2O. Reporter vector DNA was prepared from DH5α E. coli using the DNA […] free kit (Qiagen) as per manufacturers instructions. U937 cells were clectroporated at room temperature using a BIORAD electroporator. Capacitance was set to 1050 μF and voltage was 280V. The time constant was noted after each electroporation. Cells were then diluted in 4 mL of media and serum and 200 μL of cells were plated per well. Cells were allowed to recover for 16-18 hours. Cells were then treated with a test compound or vehicle in the presence or absence of 10 μM forskolin for 4 hours at 37° C.
The luciferase assay was performed as per manufacturers instructions (Tropix). Briefly, cells were centrifuged for 4 minutes at 1200 rpm and media supernatant was removed. Cell pellets were lysed in 15 μL Lysis buffer (Tropix). Luciferase assay was performed using 10 μL of cell lysate with 10 μL of buffer A and 25 μL buffer B. Luciferase activity was obtained using a luminometer with a 5-second delay followed by a read time of 10 seconds.

[5] = target: T1, cAMP phosphodiesterase 3 from human platelets (Homo sapiens, UniProt Q14432); assay: Inhibition of cAMP phosphodiesterase 3 from human platelets; assay type: biochemical; details: for IC50: PDE3, platelet cell extract, X marks this range
T1 construct: from tissue; host or cells: human platelets, cytoplasmic extract
T1 sequence (Q14432 whole entry): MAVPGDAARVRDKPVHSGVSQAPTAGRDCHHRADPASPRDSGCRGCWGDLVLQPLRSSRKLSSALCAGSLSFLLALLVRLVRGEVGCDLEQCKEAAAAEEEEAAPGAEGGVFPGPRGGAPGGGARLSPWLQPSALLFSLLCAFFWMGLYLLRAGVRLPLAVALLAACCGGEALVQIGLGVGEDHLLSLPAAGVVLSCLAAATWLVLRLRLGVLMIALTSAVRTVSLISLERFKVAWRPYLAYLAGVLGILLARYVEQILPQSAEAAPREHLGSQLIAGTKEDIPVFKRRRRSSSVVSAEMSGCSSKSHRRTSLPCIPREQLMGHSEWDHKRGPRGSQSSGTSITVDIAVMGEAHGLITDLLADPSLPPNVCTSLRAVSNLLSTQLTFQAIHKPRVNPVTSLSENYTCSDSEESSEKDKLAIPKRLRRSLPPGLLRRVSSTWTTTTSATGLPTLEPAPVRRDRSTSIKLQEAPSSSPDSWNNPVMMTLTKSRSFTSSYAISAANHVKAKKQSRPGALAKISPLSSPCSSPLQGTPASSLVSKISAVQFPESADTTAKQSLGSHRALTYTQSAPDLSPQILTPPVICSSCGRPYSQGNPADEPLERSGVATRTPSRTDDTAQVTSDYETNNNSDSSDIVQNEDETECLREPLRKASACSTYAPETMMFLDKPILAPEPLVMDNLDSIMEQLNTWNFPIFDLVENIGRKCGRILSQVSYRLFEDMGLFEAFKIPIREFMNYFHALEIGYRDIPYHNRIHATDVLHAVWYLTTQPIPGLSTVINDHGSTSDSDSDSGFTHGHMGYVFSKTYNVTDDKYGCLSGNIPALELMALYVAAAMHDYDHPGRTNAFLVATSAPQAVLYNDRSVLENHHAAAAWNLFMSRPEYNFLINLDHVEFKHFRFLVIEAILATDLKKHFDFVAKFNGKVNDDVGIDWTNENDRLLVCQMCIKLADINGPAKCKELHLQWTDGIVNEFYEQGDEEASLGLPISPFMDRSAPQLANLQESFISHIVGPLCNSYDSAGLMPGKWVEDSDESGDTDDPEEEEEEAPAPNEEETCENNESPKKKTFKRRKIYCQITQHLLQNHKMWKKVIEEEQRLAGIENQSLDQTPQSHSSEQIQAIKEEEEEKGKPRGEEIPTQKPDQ
Source text: Compound 12 was screened for activity against 5 of the major classes of mammalian cyclic nucleotide phosphodiesterase (termed PDE 1 through 5). PDE's 1 through 4 utilize cAMP as substrate while PDE 5 uses cGMP. The broad specificity PDE inhibitor 3-isobutyl-1-methylxanthine (IBMX; Sigma; Catalogue No. 17018)) was used as a positive control in all assays. PDE's for the various assays were partially purified from the following cells/tissues; PDE 1 (bovine heart), PDE 2 (human platelets), PDE 3 (human platelets), PDE 4 (human promonocytic U937 cells) and PDE 5 (human platelets).
Platelet cell extracts were prepared as described above for the U937 cells. The PDE3 assay was performed using platelet cell extract as described above for the PDE 4 assay. Platelets contain PDE 2, 3 and 5. However PDE2 and 5 preferentially utilize cGMP, so in an assay with cAMP as a substrate they are not detected.

[6] = 100 mg/kg intracolonically at 12 h intervals for one week
[7] = 100 mg/kg intracolonically at 12 h intervals for one week, day 7
[8] = read-out: IC50 RANGE (μM) >100, ROS production, X marks this range
[9] = read-out: IC50 range (μM) 10-100
[10] = read-out: IC50 RANGE (μM) <1, ROS production, X marks this range
[11] = read-out: EC50 range (μM) 0.1-1

PDE4:HARBS [3]	EC50 ([4]; read-out: EC50 range (μM) 1-25)	IC50 [5]	SMILES	further results
<1	1 to 25 µM	> 100 µM	COc1ccc([C@H]2COC(=O)C(Cc3ccc(OCc4ccccc4)c(OC)c3)C2)cc1OC (some centres unmarked) [Compound 22]	IC50 [2, 8]: > 100 µM
<1	1 to 25 µM		COc1cc(CC2C[C@@H](c3ccc(OC)c(OC4CCCC4)c3)CNC2=O)ccc1OCc1ccccc1 (some centres unmarked) [Compound 61]	IC50 [2, 8]: > 100 µM; IC50 [5, 9]: 10 to 100 µM
	1 to 25 µM		COc1ccc([C@H]2COC(=O)C(Cc3ccc(F)c(F)c3)C2)cc1OC (some centres unmarked) [Compound 77]	IC50 [2, 8]: > 100 µM; IC50 [5, 9]: 10 to 100 µM
<1		> 100 µM	COc1ccc([C@H]2COC(=O)C(Cc3ccc(OCc4ccccc4)c(OCc4ccccc4)c3)C2)cc1OC (some centres unmarked) [Compound 79]	IC50 [2, 8]: > 100 µM; EC50 [4, 11]: 0.1 to 1 µM
	1 to 25 µM		COc1ccc([C@H]2COC(=O)C(Cc3ccc(O)c(O)c3)C2)cc1OC (some centres unmarked) [Compound 80]	IC50 [2, 10]: < 1 µM; IC50 [5, 9]: 10 to 100 µM
>1		> 100 µM	COc1ccc([C@H]2COC(=O)C(Cc3ccc(O)c(N)c3)C2)cc1OC1CCCC1 (some centres unmarked) [Compound 94]	IC50 [2, 10]: < 1 µM; EC50 [4, 11]: 0.1 to 1 µM
		> 100 µM	COc1ccc([C@H]2COC(=O)C(Cc3ccc(O)c(N)c3)C2)cc1Cc1ccccc1 (some centres unmarked) [Compound 114]	
	1 to 25 µM	> 100 µM	COc1ccc([C@H]2COC(=O)C(Cc3cccc(O)c3)C2)cc1OC (some centres unmarked) [Compound 131]	IC50 [2, 10]: < 1 µM
<1	1 to 25 µM		COc1ccc(CC2C[C@@H](c3ccc(OC)c(OC)c3)COC2=O)cc1 (some centres unmarked) [Compound 132]	IC50 [2, 8]: > 100 µM; IC50 [5, 9]: 10 to 100 µM
<1	1 to 25 µM	> 100 µM	COc1ccc([C@H]2COC(=O)C(Cc3ccc(O)cc3)C2)cc1OC (some centres unmarked) [Compound 133]	IC50 [2, 10]: < 1 µM
	1 to 25 µM	> 100 µM	COc1ccc([C@H]2COC(=O)C(Cc3ccccc3)C2)cc1OC (some centres unmarked) [Compound 139]	IC50 [2, 8]: > 100 µM
<1			COc1ccc([C@H]2COC(=O)C(Cc3ccc4c(c3)OCO4)C2)cc1OC1CCCC1 (some centres unmarked) [Compound 171]	
<1			COc1ccc([C@H]2COC(=O)C(Cc3cccc(OCc4ccccc4)c3)C2)cc1OC1CCCC1 (some centres unmarked) [Compound 172]	
>1			COc1ccc(CC2C[C@@H](c3ccc(OC)c(OC4CCCC4)c3)COC2=O)cc1O (some centres unmarked) [Compound 180]	
<1			COc1ccc([C@H]2COC(=O)C(Cc3cccc(O)c3)C2)cc1OC1CCCC1 (some centres unmarked) [Compound 182]	
<1			COc1ccc([C@H]2COC(=O)C(Cc3ccc(O)cc3)C2)cc1OC1CCCC1 (some centres unmarked) [Compound 183]	
>1			COc1ccc([C@H]2COC(=O)C(Cc3ccc(N)cc3)C2)cc1OC1CCCC1 (some centres unmarked) [Compound 185]	
>1			COc1ccc([C@H]2COC(=O)C(Cc3ccc(C)c(N)c3)C2)cc1OC1CCCC1 (some centres unmarked) [Compound 187]	

Continued, compound first:

SMILES	PDE4:HARBS [3]	EC50 ([4]; read-out: EC50 range (μM) 1-25)	IC50 [5]	further results
Nc1ccc(O)c(C(=O)O)c1 [Compound 5-ASA, 5-aminosalicylic acid]				Body Weight Change (%) [1, 6]: −20.2 ± 3.4%; Mortality [1, 6]: 0/8; Adhesion (Incidence) [1, 7]: (7/8); Adhesion Score [1, 7]: 1.4 ± 0.3; Bowel Thickness (mm) [1, 7]: 2.66 ± 0.69 mm; Damage Score [1, 7]: 6.3 ± 0.8; Global Colitis Score [1, 7]: 10.41 ± 1.58; loss of body weight ([1]; 100 mg/kg, one-week study): ~20%; MPO Activity (U/mg) ([1]; colonic tissue, 100 mg/kg intracolonically at 12 h intervals for one week, day 7): 67.5 ± 8.8 U/mg; Diarrhea ([1]; incidence, 100 mg/kg intracolonically at 12 h intervals for one week, day 7, 100 mg/kg): significantly reduce and 1/8; Histology Score ([1]; percentage of luminal surface ulcerated, 100 mg/kg intracolonically for one week, day 7): 91.4 ± 5.9
COc1ccc([C@@H]2CCC(=O)NC2)cc1OC [Compound 46]	>1	1 to 25 µM	> 100 µM	IC50 ([2]; ROS production, X marks this range, read-out: IC50 RANGE (μM) 10-100): 10 to 100 µM
COc1ccc([C@@H]2CCC(=O)N(Cc3ccccc3)C2)cc1OC [Compound 47]		1 to 25 µM		IC50 ([2]; ROS production, X marks this range, read-out: IC50 RANGE (μM) 1-10): 1 to 10 µM; IC50 [5, 9]: 10 to 100 µM
COc1ccc([C@@H]2CCC(=O)NC2)cc1OC1CCCC1 [Compound 58]	>1		> 100 µM	IC50 [2, 10]: < 1 µM; EC50 [4, 11]: 0.1 to 1 µM
COc1ccc([C@H]2COC(=O)C(C)C2)cc1OC1CCCC1 (some centres unmarked) [Compound 95]			> 100 µM	
C=CCC1C[C@@H](c2ccc(OC)c(OC3CCCC3)c2)COC1=O (some centres unmarked) [Compound 96]			> 100 µM	
CCOc1cc(C2CCC(=O)OC2)ccc1OC (centres unmarked) [Compound 153]	>1	1 to 25 µM		IC50 [2, 10]: < 1 µM
CCCOc1cc(C2CCC(=O)OC2)ccc1OC (centres unmarked) [Compound 154]	>1	1 to 25 µM		IC50 [2, 10]: < 1 µM
COc1ccc([C@@H]2CCC(=O)OC2)cc1OCC1CCCCC1 [Compound 158]	<1		> 100 µM	EC50 [4, 11]: 0.1 to 1 µM
CCCCCOc1cc([C@@H]2CCC(=O)OC2)ccc1OC [Compound 159]	>1		> 100 µM	EC50 ([4]; read-out: EC50 range (μM) >25): > 25 µM
CCCCCCOc1cc([C@@H]2CCC(=O)OC2)ccc1OC [Compound 160]	<1	1 to 25 µM	> 100 µM	
CCCCCCCOc1cc([C@@H]2CCC(=O)OC2)ccc1OC [Compound 161]	<1		> 100 µM	EC50 ([4]; read-out: EC50 range (μM) >25): > 25 µM
CCCCCCCCOc1cc([C@@H]2CCC(=O)OC2)ccc1OC [Compound 162]			> 100 µM	EC50 ([4]; read-out: EC50 range (μM) >25): > 25 µM
COc1ccc([C@H]2COC(=O)C(Cc3cccc(C(F)(F)F)c3)C2)cc1OC1CCCC1 (some centres unmarked) [Compound 169]	<1			
COc1ccc([C@H]2COC(=O)C(Cc3ccc(C)c([N+](=O)[O-])c3)C2)cc1OC1CCCC1 (some centres unmarked) [Compound 176]	>1			
COc1ccc(N)cc1CC1C[C@@H](c2ccc(OC)c(OC3CCCC3)c2)COC1=O (some centres unmarked) [Compound 186]	>1			
COc1cc2c(cc1OC)-c1c/c(=N\c3c(C)cc(C)cc3C)n(C)c(=O)n1CC2 [trequinsin, reference compound]				effect in PDE3 assay ([5]; platelet cell extract, cAMP as substrate): potent inhibitor
